Test results taken from the supplement of paper PMC13207355.
Where a name gives a salt, the structure may show the parent alone.

Tests used:
Details in all cases: exposure time: 72 h
E13 [1] = patient-derived glioblastoma stem cells of classical subtype; assay: surviving fraction (nuclei count normalised to DMSO); higher = more cells surviving (less toxic)
E21 [2] = patient-derived glioblastoma stem cells of mesenchymal subtype; assay: as above
E28 [3] = patient-derived glioblastoma stem cells of classical subtype; assay: as above
E31 [4] = patient-derived glioblastoma stem cells of proneural subtype; assay: as above
E34 [5] = patient-derived glioblastoma stem cells of proneural subtype; assay: as above
E57 [6] = patient-derived glioblastoma stem cells of mesenchymal subtype; assay: as above
FT3469 [7] = normal neural stem cell line; assay: as above
E13 [8] = assay: phenotypic distance (Euclidean, principal components) from DMSO controls (arbitrary units); higher = stronger morphological change
E21 [9] = assay: as above
E28 [10] = assay: as above
E31 [11] = assay: as above
E34 [12] = assay: as above
E57 [13] = assay: as above
FT3469 [14] = assay: as above
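For phenotypic distance (Euclidean, principal components) from DMSO controls in this document: cell Painting imaging in 384-well plates, CellProfiler features reduced to at least 20 principal components, Euclidean distance versus same-plate DMSO vehicle wells (0.1% v/v), median over six images per well.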
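For surviving fraction (nuclei count normalised to DMSO) in this document: nuclei counted by high-content imaging of Hoechst-stained cells in laminin-coated 384-well plates, relative to 0.1% DMSO vehicle wells, with staurosporine as cell-death control.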

CC[C@]1(O)C[C@@H]2CN(CCc3c([nH]c4ccccc34)[C@@](C(=O)OC)(c3cc4c(cc3OC)N(C)[C@H]3[C@@](O)(C(=O)OC)[C@H](OC(C)=O)[C@]5(CC)C=CCN6CC[C@]43[C@@H]65)C2)C1 [Vinblastine sulfate]
Details	phenotypic distance	surviving fraction
E13 [1], 4.1 nM	–	0.22
E13 [1], 12.3 nM	–	0.177
E13 [1], 37 nM	–	0.175
E13 [1], 111.1 nM	–	0.159
E13 [1], 333.3 nM	–	0.171
E13 [1], 1000 nM	–	0.162
E13 [1], 3000 nM	–	0.194
E13 [8], 4.1 nM	7.96	–
E13 [8], 12.3 nM	7.11	–
E13 [8], 37 nM	8.76	–
E13 [8], 111.1 nM	7.57	–
E13 [8], 333.3 nM	9.22	–
E13 [8], 1000 nM	8.93	–
E13 [8], 3000 nM	9.73	–
E21 [2], 4.1 nM	–	0.0927
E21 [2], 12.3 nM	–	0.0948
E21 [2], 37 nM	–	0.0937
E21 [2], 111.1 nM	–	0.08
E21 [2], 333.3 nM	–	0.0642
E21 [2], 1000 nM	–	0.0421
E21 [2], 3000 nM	–	0.0326
E21 [9], 4.1 nM	9.17	–
E21 [9], 12.3 nM	9.98	–
E21 [9], 37 nM	11.1	–
E21 [9], 111.1 nM	9.54	–
E21 [9], 333.3 nM	8.35	–
E21 [9], 1000 nM	8.21	–
E21 [9], 3000 nM	11	–
E28 [3], 4.1 nM	–	0.39
E28 [3], 12.3 nM	–	0.297
E28 [3], 37 nM	–	0.291
E28 [3], 111.1 nM	–	0.236
E28 [3], 333.3 nM	–	0.269
E28 [3], 1000 nM	–	0.218
E28 [3], 3000 nM	–	0.204
E28 [10], 4.1 nM	3.12	–
E28 [10], 12.3 nM	3.85	–
E28 [10], 37 nM	4.99	–
E28 [10], 111.1 nM	4.47	–
E28 [10], 333.3 nM	5.63	–
E28 [10], 1000 nM	6.15	–
E28 [10], 3000 nM	6.57	–
E31 [4], 4.1 nM	–	0.0459
E31 [4], 12.3 nM	–	0.0237
E31 [4], 37 nM	–	0.0459
E31 [4], 111.1 nM	–	0.0325
E31 [4], 333.3 nM	–	0.0444
E31 [4], 1000 nM	–	0.0237
E31 [4], 3000 nM	–	0.0163
E31 [11], 4.1 nM	6.42	–
E31 [11], 12.3 nM	12.9	–
E31 [11], 37 nM	11.4	–
E31 [11], 111.1 nM	10.7	–
E31 [11], 333.3 nM	14.5	–
E31 [11], 1000 nM	10.1	–
E31 [11], 3000 nM	9.92	–
E34 [5], 4.1 nM	–	0.338
E34 [5], 12.3 nM	–	0.282
E34 [5], 37 nM	–	0.405
E34 [5], 111.1 nM	–	0.322
E34 [5], 333.3 nM	–	0.375
E34 [5], 1000 nM	–	0.226
E34 [5], 3000 nM	–	0.281
E34 [12], 4.1 nM	7.02	–
E34 [12], 12.3 nM	7.36	–
E34 [12], 37 nM	6.67	–
E34 [12], 111.1 nM	7.53	–
E34 [12], 333.3 nM	8.9	–
E34 [12], 1000 nM	8.95	–
E34 [12], 3000 nM	8.01	–
E57 [6], 4.1 nM	–	0.0751
E57 [6], 12.3 nM	–	0.0815
E57 [6], 37 nM	–	0.0676
E57 [6], 111.1 nM	–	0.0629
E57 [6], 333.3 nM	–	0.057
E57 [6], 1000 nM	–	0.0602
E57 [6], 3000 nM	–	0.057
E57 [13], 4.1 nM	5.33	–
E57 [13], 12.3 nM	5.47	–
E57 [13], 37 nM	6.45	–
E57 [13], 111.1 nM	5.46	–
E57 [13], 333.3 nM	5.55	–
E57 [13], 1000 nM	5.53	–
E57 [13], 3000 nM	6.15	–
FT3469 [7], 4.1 nM	–	0.427
FT3469 [7], 12.3 nM	–	0.416
FT3469 [7], 37 nM	–	0.414
FT3469 [7], 111.1 nM	–	0.334
FT3469 [7], 333.3 nM	–	0.372
FT3469 [7], 1000 nM	–	0.388
FT3469 [7], 3000 nM	–	0.353
FT3469 [14], 4.1 nM	3.93	–
FT3469 [14], 12.3 nM	4.58	–
FT3469 [14], 37 nM	4.48	–
FT3469 [14], 111.1 nM	5.12	–
FT3469 [14], 333.3 nM	6.19	–
FT3469 [14], 1000 nM	5.04	–
FT3469 [14], 3000 nM	5.6	–

CCC1=C[C@@H]2CN(C1)Cc1c([nH]c3ccccc13)[C@@](C(=O)OC)(c1cc3c(cc1OC)N(C)[C@H]1[C@@](O)(C(=O)OC)[C@H](OC(C)=O)[C@]4(CC)C=CCN5CC[C@]31[C@@H]54)C2 [Vinorelbine Tartrate]
Details	phenotypic distance	surviving fraction
E13 [1], 4.1 nM	–	0.863
E13 [1], 12.3 nM	–	0.903
E13 [1], 37 nM	–	0.916
E13 [1], 111.1 nM	–	0.907
E13 [1], 333.3 nM	–	0.82
E13 [1], 1000 nM	–	0.371
E13 [1], 3000 nM	–	0.246
E13 [8], 4.1 nM	1.1	–
E13 [8], 12.3 nM	1.18	–
E13 [8], 37 nM	1.26	–
E13 [8], 111.1 nM	1.7	–
E13 [8], 333.3 nM	2.71	–
E13 [8], 1000 nM	4.6	–
E13 [8], 3000 nM	6.33	–
E21 [2], 4.1 nM	–	0.868
E21 [2], 12.3 nM	–	0.894
E21 [2], 37 nM	–	0.926
E21 [2], 111.1 nM	–	0.761
E21 [2], 333.3 nM	–	0.586
E21 [2], 1000 nM	–	0.169
E21 [2], 3000 nM	–	0.1
E21 [9], 4.1 nM	1.06	–
E21 [9], 12.3 nM	1.08	–
E21 [9], 37 nM	1.45	–
E21 [9], 111.1 nM	2.33	–
E21 [9], 333.3 nM	4.36	–
E21 [9], 1000 nM	7	–
E21 [9], 3000 nM	8.49	–
E28 [3], 4.1 nM	–	0.904
E28 [3], 12.3 nM	–	0.815
E28 [3], 37 nM	–	0.801
E28 [3], 111.1 nM	–	0.749
E28 [3], 333.3 nM	–	0.609
E28 [3], 1000 nM	–	0.375
E28 [3], 3000 nM	–	0.353
E28 [10], 4.1 nM	0.584	–
E28 [10], 12.3 nM	0.83	–
E28 [10], 37 nM	0.727	–
E28 [10], 111.1 nM	1.31	–
E28 [10], 333.3 nM	2.18	–
E28 [10], 1000 nM	2.7	–
E28 [10], 3000 nM	3.22	–
E31 [4], 4.1 nM	–	0.794
E31 [4], 12.3 nM	–	0.911
E31 [4], 37 nM	–	0.749
E31 [4], 111.1 nM	–	0.649
E31 [4], 333.3 nM	–	0.37
E31 [4], 1000 nM	–	0.126
E31 [4], 3000 nM	–	0.0917
E31 [11], 4.1 nM	0.666	–
E31 [11], 12.3 nM	0.627	–
E31 [11], 37 nM	0.856	–
E31 [11], 111.1 nM	1.44	–
E31 [11], 333.3 nM	3.01	–
E31 [11], 1000 nM	4.58	–
E31 [11], 3000 nM	5.73	–
E34 [5], 4.1 nM	–	1.05
E34 [5], 12.3 nM	–	0.954
E34 [5], 37 nM	–	0.856
E34 [5], 111.1 nM	–	0.97
E34 [5], 333.3 nM	–	0.822
E34 [5], 1000 nM	–	0.57
E34 [5], 3000 nM	–	0.402
E34 [12], 4.1 nM	0.476	–
E34 [12], 12.3 nM	0.944	–
E34 [12], 37 nM	0.78	–
E34 [12], 111.1 nM	1.01	–
E34 [12], 333.3 nM	1.48	–
E34 [12], 1000 nM	2.84	–
E34 [12], 3000 nM	4.02	–
E57 [6], 4.1 nM	–	0.969
E57 [6], 12.3 nM	–	1.04
E57 [6], 37 nM	–	1.04
E57 [6], 111.1 nM	–	1.02
E57 [6], 333.3 nM	–	0.899
E57 [6], 1000 nM	–	0.447
E57 [6], 3000 nM	–	0.102
E57 [13], 4.1 nM	0.512	–
E57 [13], 12.3 nM	0.688	–
E57 [13], 37 nM	0.822	–
E57 [13], 111.1 nM	0.746	–
E57 [13], 333.3 nM	3.9	–
E57 [13], 1000 nM	4.81	–
E57 [13], 3000 nM	6.16	–
FT3469 [7], 4.1 nM	–	0.953
FT3469 [7], 12.3 nM	–	0.829
FT3469 [7], 37 nM	–	0.834
FT3469 [7], 111.1 nM	–	0.827
FT3469 [7], 333.3 nM	–	0.569
FT3469 [7], 1000 nM	–	0.553
FT3469 [7], 3000 nM	–	0.56
FT3469 [14], 4.1 nM	0.854	–
FT3469 [14], 12.3 nM	1.01	–
FT3469 [14], 37 nM	1.01	–
FT3469 [14], 111.1 nM	1.12	–
FT3469 [14], 333.3 nM	2.43	–
FT3469 [14], 1000 nM	4.88	–
FT3469 [14], 3000 nM	3.13	–
